Assay results from US7700797B2, “Use of hydrolysis resistant organomodified silylated surfactants” (Momentive Performance Materials Inc., priority 2006, dated 2010).

Columns and labels:
[1] = Spreading of 10 μL droplet on polystyrene Petri dishes; type: physicochemical; settings: 30 seconds
Description: Spreading was determined by applying a 10 μL droplet, of surfactant solution to polystyrene Petri dishes (Fisher Scientific) and measuring the spread diameter (mm) after 30 seconds, at a relative humidity between 50 and 70% (at 22 to 25° C.). The solution was applied with an automatic pipette to provide droplets of reproducible volume. Deionized water that was further purified with a Millipore filtration system was used to prepare the surfactant solutions.

[2] = Surface tension, Kruss surface tensiometer; type: physicochemical; settings: 0.1 wt % in 0.005M NaCl water
Description: Surface tension was measured using a Kruss surface tensiometer, with a sand blasted platinum blade as the sensor. Solutions of the various components were prepared at 0.1 wt % in 0.005M NaCl water (deionized), as an equilibrium aid.

Compound | Spread Diameter ([1]; 0.05% surfactant) [mm] | Spread Diameter ([1]; 0.1% surfactant) [mm] | Spread Diameter ([1]; 0.3% surfactant) [mm] | Spread Diameter ([1]; 0.5% surfactant) [mm] | Surface Tension [2] [mN/m]
C[Si](C)(C)C[Si](C)(C)CCCOCCOCCOCCOCCO [Product 6] | 40 | 45 | 53 | 47 | 22.5
C[Si](C)(C)CC[Si](C)(C)CCCOCCOCCOCCOCCO [Product 7] | 30 | 42 | 48 | 49 | 22.7
Octylphenolethoxylate [OPE] | – | 9 | – | 10 | 31.8

The remaining lines, values ahead:

Spread Diameter ([1]; 0.05% surfactant) [mm] | Spread Diameter ([1]; 0.1% surfactant) [mm] | Spread Diameter ([1]; 0.3% surfactant) [mm] | Spread Diameter ([1]; 0.5% surfactant) [mm] | Surface Tension [2] [mN/m] | Compound
– | 7 | – | 7 | 27.7 | C[Si](C)(C)C[Si](C)(C)CCCOCCOCCOCCOCCOCCOCCOCCOCCOCCOCCOCCO [Product 8]
– | 7 | – | 7 | 26.7 | C[Si](C)(C)CC[Si](C)(C)CCCOCCOCCOCCOCCOCCOCCOCCOCCOCCOCCOCCO [Product 9]
